Reference: the supplement of paper PMC10307832

What was measured:
Assay in all cases: relative viability (nuclei count vs DMSO), 5 days (fraction); higher = more cells survive
AZD6482 + Tozasertib = compound: Cc1cc([C@@H](C)Nc2ccccc2C(=O)O)c2nc(N3CCOCC3)cc(=O)n2c1 [AZD6482] + Cc1cc(Nc2cc(N3CCN(C)CC3)nc(Sc3ccc(NC(=O)C4CC4)cc3)n2)n[nH]1 [Tozasertib] (partner 0.1 µM)
How it was run: (§1)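 Relative viability was taken as the ratio of nuclei in treated wells to nuclei in vehicle wells. Lung cancer cell lines in 1536-well plates received compounds by pin tool one day after seeding, either one drug alone or a fixed anchor-drug dose plus five library-drug doses (not always all listed) in √10 steps. Nuclei were counted on 4× images after 5 days of treatment, and values are medians of duplicate plates.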

AZD6482 + Alpelisib = compound: Cc1cc([C@@H](C)Nc2ccccc2C(=O)O)c2nc(N3CCOCC3)cc(=O)n2c1 [AZD6482] + Cc1nc(NC(=O)N2CCC[C@H]2C(N)=O)sc1-c1ccnc(C(C)(C)C(F)(F)F)c1 [Alpelisib] (partner 2 µM)
How it was run: as §1

AZD6482 + Olaparib = compound: Cc1cc([C@@H](C)Nc2ccccc2C(=O)O)c2nc(N3CCOCC3)cc(=O)n2c1 [AZD6482] + O=C(c1cc(Cc2n[nH]c(=O)c3ccccc23)ccc1F)N1CCN(C(=O)C2CC2)CC1 [Olaparib] (partner 8 µM)
How it was run: as §1

[1] = compound: COc1cc2nc(N3CCCN(C)CC3)nc(NC3CCN(Cc4ccccc4)CC3)c2cc1OC + CS(=O)(=O)CCNCc1ccc(-c2ccc3ncnc(Nc4ccc(OCc5cccc(F)c5)c(Cl)c4)c3c2)o1 [Lapatinib] (partner 2 µM)
How it was run: as §1

Cell Line | relative viability (AZD6482 + Tozasertib; first compound 0.08 µM) | relative viability (AZD6482 + Tozasertib; first compound 0.253 µM) | relative viability (AZD6482 + Tozasertib; first compound 0.8 µM) | relative viability (AZD6482 + Tozasertib; first compound 2.53 µM) | relative viability (AZD6482 + Tozasertib; first compound 8 µM) | relative viability (AZD6482 + Alpelisib; first compound 0.08 µM) | relative viability (AZD6482 + Alpelisib; first compound 0.253 µM) | relative viability (AZD6482 + Alpelisib; first compound 0.8 µM) | relative viability (AZD6482 + Alpelisib; first compound 2.53 µM) | relative viability (AZD6482 + Alpelisib; first compound 8 µM) | relative viability (AZD6482 + Olaparib; first compound 0.08 µM) | relative viability (AZD6482 + Olaparib; first compound 0.253 µM) | relative viability (AZD6482 + Olaparib; first compound 0.8 µM) | relative viability (AZD6482 + Olaparib; first compound 2.53 µM) | relative viability (AZD6482 + Olaparib; first compound 8 µM) | relative viability ([1]; first compound 0.2 µM) | relative viability ([1]; first compound 0.6325 µM) | relative viability ([1]; first compound 2 µM) | relative viability ([1]; first compound 6.325 µM)
PC-3 [JPC-3] | 0.785 | 0.793 | 0.892 | 0.78 | 0.823 | 0.855 | 0.997 | 0.983 | 0.877 | 0.97 | 1.02 | 1.11 | 1.08 | 0.801 | 1.15 | 0.481 | 0.424 | 0.438 | 0.468
PC-14 | 0.556 | 0.61 | 0.619 | 0.613 | 0.524 | 0.857 | 0.882 | 0.832 | 0.663 | 0.807 | 0.247 | 0.337 | 0.405 | 0.308 | 0.36 | 0.334 | 0.339 | 0.372 | 0.308
RERF-LC-KJ | 0.447 | 0.513 | 0.49 | 0.465 | 0.388 | 0.653 | 0.614 | 0.6 | 0.559 | 0.637 | 0.787 | 0.963 | 0.886 | 0.963 | 0.667 | 0.832 | 0.863 | 0.875 | 0.829
SK-LU-1 | – | 0.334 | 0.295 | 0.242 | 0.261 | – | 0.89 | 0.892 | 0.76 | 0.76 | – | 0.452 | 0.474 | 0.405 | 0.359 | 0.818 | 0.754 | 1 | 0.839
SK-MES-1 | 0.877 | 0.939 | 0.86 | 0.571 | 0.549 | 0.515 | 0.658 | 0.459 | 0.269 | 0.433 | 0.457 | 0.598 | 0.529 | 0.305 | 0.336 | 0.476 | 0.433 | 0.539 | 0.483
SW 1573 | 0.158 | 0.17 | 0.184 | 0.123 | 0.143 | 0.518 | 0.533 | 0.47 | 0.303 | 0.407 | 0.478 | 0.4 | 0.486 | 0.401 | 0.369 | 1.15 | 1.07 | 1.26 | 1.05
